One test has as its system MV4-11 cells. The experiment in a line: Cell viability assay (CellTiter-Glo), 12 days. It is filed as cell-based. As to conditions: Homo sapiens, readouts on days 4, 8 and 12, day not given. The protocol: Cell-based assays were used to assess the ability of test compounds to reduce cell viability in both MV4:11 (MLL-AF4 MLL) and K562 cells, which were cultured in Iscove's Modified Dulbecco's medium (Gibco, 12440061) containing […]. The assays were conducted over 12 days and the cells being split on days 4 and 8. Compound concentration response curves were performed in duplicate over the concentration range of 0.15 nM-30 uM. On day 0, the compounds or vehicle were plated in a 300 nL directly into 96 well cell culture plates (Corning, 3599) with 5000 cells/well in a volume of 100 uL. Blank wells received cell culture medium. Plates were incubated for 4 days at 37° C. with 5% CO2. On days 4 and day 8 the cells were split and incubated for a further 4 days whilst an aliquot of cells were taken for the CTG readout. For the cell splitting, 270 nL of compounds or DMSO was added to a new 96 well cell culture plate to which 90 uL of medium plus 10 uL of cells from the original assay plate (after mixing) or 100 uL of medium (Blank wells) was added. This was repeated on day 8.
Cell viability was assessed using the CellTiter-Glo® homogeneous luminescent assay kit (Promega, G9243), according to the manufacturer's instructions. This quantifies ATP, which indicates the presence of metabolically active cells. On days 4, 8 and 12, 20 ul of the remaining cell suspension was aspirated into 384-well plate (Corning 3570) to which an equal volume CellTiter-Glo reagent was. Plates were incubated for 10 minute incubation at RT prior to recording the luminescence signal using EnVision plate reader (PE, 2104). The resulting data were analyzed as follows:
Inhibition (%)=100%×(Lumvehicie−Lumsample)/(Lumvehicle−Lumblank)
where vehicle are cells treated with 0.3% DMSO, Blank is culture medium. IC50 determinations were calculated by fitting the curve using XLfit (v5.3.1.3): Y=Bottom+(Top−Bottom)/(1+10^((Log IC50−X)*HillSlope)).

Test [1] deals with T1, ENL YEATS domain (6×HIS ENL YEATS Domain) binding to H3K9cr peptide (Homo sapiens, UniProt Q03111).
T1 construct: aa1-150; EpiCypher, 15-0069; purchased EpiCypher 15-0069
T1 sequence (Q03111 1-150): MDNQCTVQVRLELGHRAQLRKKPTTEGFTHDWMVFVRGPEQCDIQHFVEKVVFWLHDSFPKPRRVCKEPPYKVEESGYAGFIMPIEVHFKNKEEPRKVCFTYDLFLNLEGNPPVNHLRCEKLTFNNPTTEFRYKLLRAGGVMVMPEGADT
The experiment in a line: TR-FRET ENL Screening Assay, FRET Assay Protocol 1. Particulars: H3K9cr peptide (aa1-20). The protocol:
Compounds of the invention were dissolved in DMSO at a concentration of 3 mM with subsequent dilutions in assay buffer (50 mM HEPES PH7.0, 150 mM NaCl, 0.05% BSA, 0.2% Pluronic F-127) such that the assay contained 1% DMSO. […] Low control (LC) wells received 5 uL of assay buffer instead of ENL protein. […] Compound concentration response curves were performed in duplicate over the concentration range of 0.15 nM-30 uM. The response at each compound concentration minus the LC value was converted to percent inhibition of the vehicle control group response (HC-LC). The relationship between the % inhibition and the compound concentration was analyzed using a four parameter logistic equation to estimate lower and upper asymptotes, the compound concentration producing 50% inhibition (IC50 value) and the slope at the mid-point location.

These results are taken from patent publication US20230027198A1 (The Rockefeller University, priority 2019, published 2023).

For the compound `COc1cc2ccc(C(=O)Nc3cc4[nH]c(CN5CCC[C@@H]5C)cc4cn3)cc2cn1` [Example 88], the IC50 with MV4-11 cells came out at 0.623 µM; in test [1], 141 nM.

On to `C[C@H]1CCCN1Cc1cc2cnc(NC(=O)c3ccc(-c4cn[nH]c4)cc3)cc2[nH]1` [Example 42, N-(2-[[(2S)-2-methylpyrrolidin-1-yl]methyl]-1H-pyrrolo[3,2-c]pyridin-6-yl)-4-(1H-pyrazol-4-yl)benzamide], for which the IC50 with MV4-11 cells stood at 0.109 µM; in test [1] it was 161 nM.

As for `Cn1ncc2ccc(C(=O)Nc3cc4[nH]c(CN5CC6(CCOCC6)C5)cc4cn3)cc21` [Example 104], the 50% inhibitory concentration (IC50) in the test on MV4-11 cells was 0.22 µM; in test [1] it was 210 nM.

As to `Cc1noc2cc(C(=O)Nc3cc4[nH]c(CN5CCC[C@@H]5C)cc4cn3)ccc12` [Example 1, (S)-3-methyl-N-(2-((2-methylpyrrolidin-1-yl)methyl)-1H-pyrrolo[3,2-c]pyridin-6-yl)benzo[d]isoxazole-6-carboxamide], the figures for the IC50 (in the test on MV4-11 cells; in test [1]) were 0.057 µM and 143 nM, respectively.

As to `C[C@H]1CCCN1Cc1cc2cnc(NC(=O)c3ccc4cc(=O)[nH]cc4c3)cc2[nH]1` [Example 23, N-(2-[[(2S)-2-methylpyrrolidin-1-yl]methyl]-1H-pyrrolo[3,2-c]pyridin-6-yl)-3-oxo-2H-isoquinoline-7-carboxamide], the values for the IC50 (with MV4-11 cells; in test [1]) were 0.076 µM and 208 nM, respectively.

Regarding `C[C@H]1CCCN1Cc1cc2cnc(NC(=O)c3ccc(-c4cnn(C)c4)cc3)cc2[nH]1` [Example 21, 4-(1-methylpyrazol-4-yl)-N-(2-[[(2S)-2-methylpyrrolidin-1-yl]methyl]-1H-pyrrolo[3,2-c]pyridin-6-yl)benzamide], the concentration for half-maximal inhibition (IC50) stood at 0.301 µM in the test with MV4-11 cells and 250 nM in test [1].

As to `Cc1nn(C)c2cc(C(=O)Nc3cc4[nH]c(CN5CCC[C@@H]5C)cc4cn3)ccc12` [Example 5], the results for the IC50 (in the test with MV4-11 cells; in test [1]) were 0.022 µM and 125 nM, respectively.

With `C[C@H]1CCCN1Cc1cc2cnc(NC(=O)c3ccc4c(N)nn(C)c4c3)cc2[nH]1` [Example 60], the IC50 amounted to 0.182 µM in the test with MV4-11 cells and 330 nM in test [1].

Take `C[C@H]1CCCN1Cc1cc2cnc(NC(=O)c3ccc4[nH]nc(C5CC5)c4c3)cc2[nH]1` [Example 48]: the IC50 with MV4-11 cells is 0.057 µM; in test [1] it was 140 nM.

With `Cc1n[nH]c2cc(C(=O)Nc3cc4[nH]c(CN5CCC[C@@H]5C)cc4cn3)ccc12` [Example 67], the IC50 in the test with MV4-11 cells was 0.149 µM; in test [1], 125 nM.

For `C[C@H]1CCN1Cc1cc2cnc(NC(=O)c3ccc4[nH]nc(C5CC5)c4c3)cc2[nH]1` [Example 73, 3-cyclopropyl-N-(2-[[(2S)-2-methylazetidin-1-yl]methyl]-1H-pyrrolo[3,2-c]pyridin-6-yl)-1H-indazole-5-carboxamide], the IC50 in the test with MV4-11 cells was found to be 0.684 µM; in test [1], 238 nM.

As to `CNc1nn(C)c2cc(C(=O)Nc3cc4[nH]c(CN5CCC[C@@H]5C)cc4cn3)ccc12` [Example 85], the results for the IC50 (with MV4-11 cells; in test [1]) were 0.183 µM and 176 nM, respectively.

Regarding `C[C@H]1CCCN1Cc1cc2cnc(NC(=O)c3ccc(-c4cnn(CC#N)c4)cc3)cc2[nH]1` [Example 52], the 50% inhibitory concentration (IC50) in the test with MV4-11 cells amounted to 0.184 µM; in test [1], 154 nM.

For `Cc1n[nH]c2ccc(C(=O)Nc3cc4[nH]c(CN5CCC[C@@H]5C)cc4cn3)cc12` [Example 47], the IC50 in the test on MV4-11 cells was 0.128 µM; in test [1], 144 nM.

Take `Cc1nn(C)c2ccc(C(=O)Nc3cc4[nH]c(CN5CCC[C@@H]5C)cc4cn3)cc12` [Example 6]: the results for the concentration for half-maximal inhibition (IC50) (in the test with MV4-11 cells; in test [1]) were 0.061 µM and 133 nM, respectively.

For `C[C@H]1CCCN1Cc1cc2cnc(NC(=O)c3ccc(-c4cnn(C(F)F)c4)cc3)cc2[nH]1` [Example 50], the IC50 in the test with MV4-11 cells was found to be 0.1 µM; in test [1] it was 158 nM.

As for `Cc1ncc2cc(C(=O)Nc3cc4[nH]c(CN5CCC[C@@H]5C)cc4cn3)ccn12` [Example 99, 3-methyl-N-(2-[[(2S)-2-methylpyrrolidin-1-yl]methyl]-1H-pyrrolo[3,2-c]pyridin-6-yl)imidazo[1,5-a]pyridine-7-carboxamide], the IC50 in the test with MV4-11 cells was 0.468 µM; in test [1] it was 186 nM.

`C[C@H]1CCCN1Cc1cc2cnc(NC(=O)c3ccc4c(C(F)F)nn(C)c4c3)cc2[nH]1` [Example 55]: the IC50 in the test on MV4-11 cells worked out at 0.058 µM; in test [1], 116 nM.

Compound `Cc1c[nH]c2cc(C(=O)Nc3cc4[nH]c(CN5CCC[C@@H]5C)cc4cn3)ccc12` [Example 68] displayed an IC50 in test [1] of 622 nM.

For `C[C@H]1CCCN1Cc1cc2cnc(NC(=O)c3ccc4onc(C5CC5)c4c3)cc2[nH]1` [Example 53, 3-cyclopropyl-N-(2-[[(2S)-2-methylpyrrolidin-1-yl]methyl]-1H-pyrrolo[3,2-c]pyridin-6-yl)-1,2-benzoxazole-5-carboxamide], the IC50 in test [1] was 417 nM.

Compound `Cc1cnc(-c2ccc(C(=O)Nc3cc4[nH]c(CN5CCC[C@@H]5C)cc4cn3)c(F)c2)nc1` [Example 14, 2-fluoro-4-(5-methylpyrimidin-2-yl)-N-(2-[[(2S)-2-methylpyrrolidin-1-yl]methyl]-1H-pyrrolo[3,2-c]pyridin-6-yl)benzamide] had a concentration for half-maximal inhibition (IC50) in test [1] of 1420 nM.

With `C[C@H]1CCCN1Cc1cc2cnc(NC(=O)c3ccc(-n4cnnc4)cc3)cc2[nH]1` [Example 91], the IC50 in test [1] was 707 nM.

`Cc1n[nH]c2ccc(C(=O)Nc3cc4[nH]c(CN5CCC[C@@H]5C)c(F)c4cn3)cc12` [Example 107, N-(3-fluoro-2-[[(2S)-2-methylpyrrolidin-1-yl]methyl]-1H-pyrrolo[3,2-c]pyridin-6-yl)-3-methyl-1H-indazole-5-carboxamide] yielded an IC50 in test [1] of 94 nM.

In the case of `C[C@H]1CCCN1Cc1cc2cnc(NC(=O)c3ccc(-c4cc[nH]n4)cc3F)cc2[nH]1` [Example 43, 2-fluoro-N-(2-[[(2S)-2-methylpyrrolidin-1-yl]methyl]-1H-pyrrolo[3,2-c]pyridin-6-yl)-4-(1H-pyrazol-3-yl)benzamide], in test [1], the IC50 was 699 nM.

`Cc1n[nH]cc1-c1ccc(C(=O)Nc2cc3[nH]c(CN4CCC[C@@H]4C)cc3cn2)cc1` [Example 89] came in with a half-maximal inhibitory concentration (IC50) in test [1] of 499 nM.

For `C[C@H]1CCCN1Cc1cc2cnc(NC(=O)c3ccc(CN)cc3)cc2[nH]1` [Example 81], in test [1], the IC50 amounted to 1200 nM.

On to `Cc1nn(C2CS(=O)(=O)C2)c2ccc(C(=O)Nc3cc4[nH]c(CN5CCC[C@@H]5C)cc4cn3)cc12` [Example 101], for which the half-maximal inhibitory concentration (IC50) in test [1] is 126 nM.

`COc1cc(C(=O)Nc2cc3[nH]c(CN4CCC[C@@H]4C)cc3cn2)c(F)cc1-c1ccn[nH]1` [Example 44]: in test [1], the IC50 came out at 760 nM.

Regarding `C[C@H]1CCCN1Cc1cc2cnc(NC(=O)c3ccc4nccnc4c3)cc2[nH]1` [Example 38], the 50% inhibitory concentration (IC50) in test [1] was 489 nM.

Compound `CC1C(=O)Nc2cc(C(=O)Nc3cc4[nH]c(CN5CCC[C@@H]5C)cc4cn3)ccc21` (stereo partly drawn) [Example 69, 3-methyl-N-(2-[[(2S)-2-methylpyrrolidin-1-yl]methyl]-1H-pyrrolo[3,2-c]pyridin-6-yl)-2-oxo-1,3-dihydroindole-6-carboxamide] registered an IC50 in test [1] of 412 nM.

In test [1], `Cc1n[nH]c2cc(F)c(C(=O)Nc3cnc4cc(CN5CCC[C@@H]5C)[nH]c4c3)cc12` [Example 105, 6-fluoro-3-methyl-N-(2-[[(2S)-2-methylpyrrolidin-1-yl]methyl]-1H-pyrrolo[3,2-b]pyridin-6-yl)-1H-indazole-5-carboxamide] displayed a half-inhibitory concentration (IC50) of 270 nM.

Compound `C[C@H]1CCCN1Cc1cc2cnc(NC(=O)c3ccc(-c4cnn(C5CC5)c4)cc3)cc2[nH]1` [Example 49] gave an IC50 in test [1] of 151 nM.
